System: BRM-dependent transcription (BRG1 mutant lung cancer cell line A549)
Experiment: BRM-dependent transcription, MMTV luciferase reporter in BRG1 mutant A549 cells
Assay type: cell-based
Conditions: Table 11; for IC50: A549-MMTV luciferase reporter, dexamethasone induced, 6 hours; for Ratio (MDA-MMTV IC50 (μM) divided by A549-MMTV IC50 (μM)): MMTV luciferase reporter cell lines, selectivity BRG1/BRM
In short: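 Compound dose series added to dexamethasone-stimulated A549 cells (BRG1 mutant) carrying a BRM-dependent mouse mammary tumor virus luciferase reporter; luminescence measured at 6 h post-stimulation.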

IC50 (Homo sapiens, A549, 6 h)	Ratio (MDA-MMTV IC50 (μM) divided by A549-MMTV IC50 (μM))	IC50	Compound
6.2 nM	35.46	–	[2H]C([2H])([2H])C([2H])([2H])Oc1nc([C@@H](F)CF)ccc1-c1ccc2cnc(CNC(=O)c3cc(C(F)F)c4c(c3)S(=O)(=O)[C@@H](F)COC4)cc2n1 [Compound 479]
2.1 nM	24.21	–	O=C(NCc1cc2nc(-c3ccc([C@@H](F)CF)nc3OC(F)F)ccc2cn1)c1cc(F)c2c(c1)S(=O)(=O)[C@@H](F)CCO2 [Compound 391]
–	25.28	4.2 nM	CCOc1nc(C(C)(F)F)ccc1-c1ccc2cnc(CNC(=O)c3cc(F)c4c(c3)S(=O)(=O)[C@@H](F)COC4)cc2n1 [Compound 468]
–	41.47	10 nM	CCOc1nc([C@H](F)CF)ccc1-c1ccc2cnc(CNC(=O)c3cc(C(F)F)c4c(c3)S(=O)(=O)[C@@H](F)COC4)cc2n1 [Compound 460]
19.9 nM	44.98	–	O=C(NCc1cc2nc(-c3cccc(OC(F)F)n3)ccc2cn1)c1cc(Cl)c2c(c1)S(=O)(=O)[C@@H](F)CCO2 [Compound 346]
–	29.42	4.1 nM	C[C@@H]1CCN1c1cnc2c(-c3ccc4cnc(CNC(=O)c5cc(F)c6c(c5)S(=O)(=O)[C@@H](F)COC6)cc4n3)cccc2c1 [Compound 470]
6.2 nM	27.54	–	Cc1cc(C(=O)NCc2cc3nc(-c4ccc(OC(F)F)c(C5CC5)n4)ccc3cn2)cc2c1COC[C@H](F)S2(=O)=O [Compound 413]
13.4 nM	53.94	–	COc1ccc(-c2ccc3cnc(CNC(=O)c4cc(Br)c5c(c4)S(=O)(=O)[C@@H](F)COC5)cc3n2)nc1C1CC1 [Compound 487]
16.9 nM	33.18	–	CCOc1nc(C(F)F)ccc1-c1ccc2cnc(CNC(=O)c3cc(Cl)c4c(c3)S(=O)(=O)[C@@H](F)CCO4)cc2n1 [Compound 331, (R)-9-chloro-N-((2-(6-(difluoromethyl)-2-ethoxypyridin-3-yl)-1,6-naphthyridin-7-yl)methyl)-4-fluoro-3,4-dihydro-2H-benzo[b][1,4]oxathiepine-7-carboxamide 5,5-dioxide]
7.9 nM	26.53	–	O=C(NCc1cc2nc(-c3ccc(C(F)F)nc3OCC3CC3)ccc2cn1)c1cc(F)c2c(c1)S(=O)(=O)[C@@H](F)COC2 [Compound 488]
20 nM	22.55	–	[2H]C1([2H])OC([2H])([2H])[C@H](F)S(=O)(=O)c2cc(C(=O)NCc3cc4nc(-c5cccc(OC(F)F)n5)ccc4cn3)cc(F)c21 [Compound 379]
7.4 nM	37.87	–	O=C(NCc1cc2nc(-c3ccc(OC(F)F)c([C@@H]4CC4(F)F)n3)ccc2cn1)c1cc(Cl)c2c(c1)S(=O)(=O)[C@@H](F)COC2 [Compound 449]
16.9 nM	22.45	–	COc1nc([C@](C)(F)C(F)F)ccc1-c1ccc2cnc(CNC(=O)c3cc(F)c4c(c3)S(=O)(=O)[C@@H](F)CCO4)cc2n1 [Compound 363]
7.6 nM	35.99	–	O=C(NCc1cc2nc(-c3ccc(OC(F)F)c(C4CC4)n3)ccc2cn1)c1cc(C(F)F)c2c(c1)S(=O)(=O)[C@@H](F)COC2 [Compound 415]
19.4 nM	49.65	–	[2H]C([2H])([2H])Oc1ccc(-c2ccc3cnc(CNC(=O)c4cc(Br)c5c(c4)S(=O)(=O)[C@@H](F)COC5)cc3n2)nc1[C@H]1CC1(F)F [Compound 493]
11.1 nM	24.93	–	O=C(NCc1cc2nc(-c3ccnc(N4CCC4)n3)ccc2cn1)c1cc(F)c2c(c1)S(=O)(=O)[C@@H](F)CCO2 [Compound 343]
20.9 nM	22.49	–	Cc1cc(C(=O)NCc2cc3nc(-c4ccc(C(F)F)c(C5CC5)n4)ccc3cn2)cc2c1OCC[C@H](F)S2(=O)=O [Compound 385]
15.6 nM	23.65	–	O=C(NCc1cc2nc(-c3cccc4c3OC(F)(F)O4)ccc2cn1)c1cc(F)c2c(c1)S(=O)(=O)[C@@H](F)COC2 [Compound 458]
11.7 nM	29.00	–	C=Cc1cc(C(=O)NCc2cc3nc(-c4cccc(N5C[C@@H](C)O[C@@H](C)C5)n4)ccc3cn2)cc2c1OCC[C@H](F)S2(=O)=O [Compound 407]
24.1 nM	29.97	–	COc1nc([C@@H](C)C(F)F)ccc1-c1ccc2cnc(CNC(=O)c3cc(F)c4c(c3)S(=O)(=O)[C@@H](F)CCO4)cc2n1 [Compound 366]
14.1 nM	25.36	–	COc1nc(OC(F)F)ccc1-c1ccc2cnc(CNC(=O)c3cc(Cl)c4c(c3)S(=O)(=O)[C@@H](F)COC4)cc2n1 [Compound 409]

IC50 (Homo sapiens, A549, 6 h)	Ratio (MDA-MMTV IC50 (μM) divided by A549-MMTV IC50 (μM))	IC50	Compound
–	28.12	22.6 nM	CCOc1nc([C@H](F)CF)ccc1-c1ccc2cnc(CNC(=O)c3cc(Cl)c4c(c3)S(=O)(=O)[C@@H](F)COC4)cc2n1 [Compound 519]
25.7 nM	24.69	–	O=C(NCc1cc2nc(-c3ccnc(C4CC4(F)F)n3)ccc2cn1)c1cc(Cl)c2c(c1)S(=O)(=O)[C@@H](F)COC2 (stereo partly drawn) [Compound 420]
13 nM	30.55	–	CCOc1nn(-c2ccc3cnc(CNC(=O)c4cc(C(F)F)c5c(c4)S(=O)(=O)[C@@H](F)COC5)cc3n2)cc1F [Compound 501]
18.6 nM	42.97	–	O=C(NCc1cc2nc(-n3cc(F)c(OC(F)F)n3)ccc2cn1)c1cc(Cl)c2c(c1)S(=O)(=O)[C@@H](F)COC2 [Compound 474]
17 nM	24.85	–	COc1nc(C(C)(F)F)ccc1-c1ccc2cnc(CNC(=O)c3cc(C(F)F)c4c(c3)S(=O)(=O)[C@@H](F)COC4)cc2n1 [Compound 467]
15.5 nM	21.63	–	O=C(NCc1cc2nc(N3CCOc4cc(N5CC(F)(F)C5)cnc43)ccc2cn1)c1cc(F)c2c(c1)S(=O)(=O)[C@@H](F)CCO2 [Compound 353]
12 nM	25.21	–	O=C(NCc1cc2nc(-c3ccc([C@@H](F)C(F)F)c(C4CC4)n3)ccc2cn1)c1cc(Cl)c2c(c1)S(=O)(=O)[C@@H](F)COC2 [Compound 482]
21.4 nM	29.68	–	[2H]C([2H])([2H])Oc1ccc(-c2ccc3cnc(CNC(=O)c4cc(Br)c5c(c4)S(=O)(=O)[C@@H](F)COC5)cc3n2)nc1C1CC1 [Compound 522]
8.1 nM	40.24	–	CCOc1nc(C(F)F)ccc1-c1ccc2cnc(CNC(=O)c3cc(C(F)F)c4c(c3)S(=O)(=O)[C@@H](F)COC4)cc2n1 [Compound 430]
9.5 nM	31.77	–	CCOc1nc(C(F)F)ccc1-c1ccc2cnc(CNC(=O)c3cc(Cl)c4c(c3)S(=O)(=O)[C@@H](F)COC4)cc2n1 [Compound 431]
2.3 nM	24.38	–	O=C(NCc1cc2nc(N3CCC(F)(F)c4cc(C5CC5)cnc43)ccc2cn1)c1cc(F)c2c(c1)S(=O)(=O)[C@@H](F)CCO2 [Compound 425]
122 nM	28.75	–	C[C@@H]1CN(c2cccc(-c3ccc4cnc(CNC(=O)c5cc(F)c6c(c5)S(=O)(=O)[C@@H](F)CO6)cc4n3)n2)C[C@H](C)O1 [Compound 341]
7.7 nM	21.12	–	[2H]C([2H])([2H])OC([2H])([2H])C([2H])([2H])Oc1cnc2c(c1)OCCN2c1ccc2cnc(CNC(=O)c3cc(C(F)F)c4c(c3)S(=O)(=O)[C@@H](F)COC4)cc2n1 [Compound 500]
17.3 nM	33.25	–	O=C(NCc1cc2nc(-c3cccc4c3OC(F)(F)O4)ccc2cn1)c1cc(C(F)F)c2c(c1)S(=O)(=O)[C@@H](F)COC2 [Compound 503]
7.1 nM	37.21	–	CCOc1nc([C@@H](F)CF)ccc1-c1ccc2cnc(CNC(=O)c3cc(Cl)c4c(c3)S(=O)(=O)[C@@H](F)COC4)cc2n1 [Compound 475]
13.8 nM	22.11	–	O=C(NCc1cc2nc(-c3ccc(OC(F)F)c([C@H]4CC4(F)F)n3)ccc2cn1)c1cc(Cl)c2c(c1)S(=O)(=O)[C@@H](F)COC2 [Compound 447]
17.9 nM	23.62	–	O=C(NCc1cc2nc(-c3cccc(OC(F)F)c3)ccc2cn1)c1cc(F)c2c(c1)S(=O)(=O)[C@@H](F)CCO2 [Compound 342]
17.8 nM	54.50	–	[2H]C1([2H])Oc2c(F)cc(C(=O)NCc3cc4nc(-c5ccc(OCC)c(C6CC6(F)F)n5)ccc4cn3)cc2S(=O)(=O)[C@@]([2H])(F)C1([2H])[2H] (stereo partly drawn) [Compound 374]
15 nM	24.97	–	[2H]C([2H])([2H])C([2H])([2H])Oc1nc(C(C)(F)F)ccc1-c1ccc2cnc(CNC(=O)c3cc(Cl)c4c(c3)S(=O)(=O)[C@@H](F)COC4)cc2n1 [Compound 499]
16.6 nM	24.09	–	O=C(NCc1cc2nc(-c3ccc([C@H](F)C(F)F)c(C4CC4)n3)ccc2cn1)c1cc(Br)c2c(c1)S(=O)(=O)[C@@H](F)COC2 [Compound 492]
14.9 nM	23.16	–	O=C(NCc1cc2nc(-c3cnc(OC(F)F)c(C4CC4)n3)ccc2cn1)c1cc(F)c2c(c1)S(=O)(=O)[C@@H](F)CCO2 [Compound 373]
